Assay type in all cases: functional
Assay [1] relates to Staphylococcus aureus. Put plainly: Antibacterial activity against methicillin-resistant Staphylococcus aureus assessed as inhibition of bacterial growth incubated for 18 to 24 hrs by CLSI protocol based Tryptic soy broth method. To be noted: time 18-24 hrs.
For assay [2], the system named is Enterococcus faecalis. Put plainly: Antibacterial activity against Enterococcus faecalis ATCC 29212 assessed as inhibition of bacterial growth incubated for 18 to 24 hrs by CLSI protocol based Tryptic soy broth method. The note with it: time 18-24 hrs.
Assay [3] relates to Staphylococcus epidermidis. Put plainly: Antibacterial activity against Staphylococcus epidermidis ATCC 12228 assessed as inhibition of bacterial growth incubated for 18 to 24 hrs by CLSI protocol based Tryptic soy broth method. To be noted: time 18-24 hrs.
In assay [4] the test system is Staphylococcus aureus. The experiment in a line: Antibacterial activity against Staphylococcus aureus ATCC 25923 assessed as inhibition of bacterial growth incubated for 18 to 24 hrs by CLSI protocol based Tryptic soy broth method. To be noted: time 18-24 hrs.
Assay [5] concerns Enterococcus. The experiment in a line: Antibacterial activity against vancomycin-resistant Enterococcus assessed as inhibition of bacterial growth by CLSI protocol based method.
Assay [6] concerns Staphylococcus aureus. The experiment in a line: Antibacterial activity against Staphylococcus aureus ATCC 29213 assessed as inhibition of bacterial growth by CLSI protocol based method.
Assay [7] deals with Staphylococcus aureus. The experiment in a line: Antibacterial activity against methicillin-resistant Staphylococcus aureus assessed as inhibition of bacterial growth by CLSI protocol based method.
In assay [8] the test system is Bacillus subtilis. Put plainly: Antibacterial activity against Bacillus subtilis assessed as inhibition of bacterial growth measured per 100 uL incubated for 24 hrs by agar well diffusion method. A general note: A growth-free zone around the sample is the usual read-out of agar diffusion tests.
Assay [9] deals with Pseudomonas aeruginosa. The experiment in a line: Antibacterial activity against Pseudomonas aeruginosa assessed as inhibition of bacterial growth measured per 100 uL incubated for 24 hrs by agar well diffusion method.
In assay [10] the test system is Staphylococcus aureus. The experiment in a line: Antibacterial activity against Staphylococcus aureus assessed as inhibition of bacterial growth measured per 100 uL incubated for 24 hrs by agar well diffusion method.
Assay [11] relates to Escherichia coli. The experiment in a line: Antibacterial activity against Escherichia coli assessed as inhibition of bacterial growth measured per 100 uL incubated for 24 hrs by agar well diffusion method.
The subject of assay [12] is Saccharomyces cerevisiae. The experiment in a line: Antifungal activity against Saccharomyces cerevisiae assessed as inhibition of fungal growth incubated measured per 100 uL incubated for 24 hrs by agar well diffusion method.
Assay [13] has as its system Candida albicans. Put plainly: Antifungal activity against Candida albicans assessed as inhibition of fungal growth incubated measured per 100 uL incubated for 24 hrs by agar well diffusion method.
Assay [14] concerns Bacillus subtilis. The experiment in a line: Antibacterial activity against Bacillus subtilis NCIM 2097 assessed as inhibition of bacterial growth incubated for 24 hrs by serial broth dilution method. In general terms: Broth dilution looks for growth in wells or tubes with falling amounts of substance.
Assay [15] concerns Staphylococcus aureus. Put plainly: Antibacterial activity against Staphylococcus aureus NCIM 5257 assessed as inhibition of bacterial growth incubated for 24 hrs by serial broth dilution method.
For assay [16], the system named is Pseudomonas aeruginosa. The experiment in a line: Antibacterial activity against Pseudomonas aeruginosa NCIM 5210 assessed as inhibition of bacterial growth incubated for 24 hrs by serial dilution method.
The test system of assay [17] is Enterococcus faecalis. The experiment in a line: Antibacterial activity against Streptococcus faecalis NCIM 2080 assessed as inhibition of bacterial growth incubated for 24 hrs by serial dilution method.
Assay [18] relates to Escherichia coli. The experiment in a line: Antibacterial activity against Escherichia coli NCIM 2065 assessed as inhibition of bacterial growth incubated for 24 hrs by serial dilution method.
Assay [19] has as its system Klebsiella pneumoniae. Put plainly: Antibacterial activity against Klebsiella pneumoniae NCIM 5289 assessed as inhibition of bacterial growth incubated for 24 hrs by serial dilution method.

Structures are written as SMILES. ≈ marks a conversion by molar mass, not a printed value.

In the case of `Cc1nc(C)c(COc2ccc(N3C[C@H](Cn4ccnn4)OC3=O)cc2)nc1C`, the MIC was 32 µg/mL (≈ 81.1 µM) in [1], 128 µg/mL (≈ 325 µM) in assay [2], 64 µg/mL (≈ 162 µM) in assay [3] and 64 µg/mL (≈ 162 µM) in [4].

As to `CC(=O)NC[C@H]1CN(c2ccc(OCc3nc(C)c(C)nc3C)c(F)c2)C(=O)O1`, the MIC in [1] was 4 µg/mL (≈ 9.94 µM); in assay [2] it was 16 µg/mL (≈ 39.8 µM); in [3], 4 µg/mL (≈ 9.94 µM); in [4] it was 8 µg/mL (≈ 19.9 µM).

Take `Cc1nc(C)c(COc2ccc(N3C[C@H](CNC(=O)CCl)OC3=O)cc2)nc1C`: the MIC in assay [1] is 8 µg/mL (≈ 19.1 µM); in assay [2] it was 16 µg/mL (≈ 38.2 µM); in [3], 8 µg/mL (≈ 19.1 µM); in assay [4], 8 µg/mL (≈ 19.1 µM).

Consider `CC(=O)NC[C@H]1CN(c2ccc(N3CCN(/N=C/c4ccc([N+](=O)[O-])o4)CC3)c(F)c2)C(=O)O1`, for which the MIC in assay [5] came to 1 µg/mL (≈ 2.11 µM); in [6], 0.25 µg/mL (≈ 0.527 µM); in assay [7], 1 µg/mL (≈ 2.11 µM).

With `O=C1NC(Cc2ccc(Nc3nc(-c4ccc(-c5ccccc5)cc4)cs3)cc2)CO1` (centres undefined), the MIC in [8] amounted to 6.25 µg; in assay [9] it was 12.5 µg; in assay [10], 6.25 µg; in [11], 12.5 µg; in [12], 12.5 µg; in assay [13] it was 12.5 µg.

In the case of `O=C(/C=C/c1ccc([N+](=O)[O-])cc1)c1ccc(-c2ccc(N3C[C@H](CO)OC3=O)cc2)cc1`, the MIC in [14], in [15], in [16], in [17], in assay [18] and in assay [19] was 3.12 µg/mL (≈ 7.03 µM) in each case.

`COc1cc(/C=C/C(=O)c2ccc(-c3ccc(N4C[C@H](CO)OC4=O)cc3)cc2)ccc1O`: the MIC in assay [14], in assay [15], in assay [16], in assay [17], in assay [18] and in assay [19] was 3.12 µg/mL (≈ 7.02 µM) throughout.

`Cc1nc(C)c(COc2ccc(N3C[C@H](CNC(=O)C(Cl)Cl)OC3=O)cc2F)nc1C`: the MIC was 2 µg/mL (≈ 4.24 µM) in assay [1], 8 µg/mL (≈ 17 µM) in assay [2], 4 µg/mL (≈ 8.49 µM) in assay [3] and 4 µg/mL (≈ 8.49 µM) in [4].

On to `CC(=O)NC[C@H]1CN(c2ccc(N3CCN(/N=C/c4ccccc4[N+](=O)[O-])CC3)c(F)c2)C(=O)O1`, for which the MIC in assay [5] worked out at 2 µg/mL (≈ 4.13 µM); in [6] it was 2 µg/mL (≈ 4.13 µM); in assay [7] it was 1 µg/mL (≈ 2.06 µM).

Take `CC(=O)NC[C@H]1CN(c2ccc(OCc3nc(C)c(C)nc3C)cc2)C(=O)O1`: the MIC in [1] was 8 µg/mL (≈ 20.8 µM); in assay [2], 32 µg/mL (≈ 83.2 µM); in [3] it was 16 µg/mL (≈ 41.6 µM); in [4] it was 16 µg/mL (≈ 41.6 µM).

With `O=C(/C=C/c1ccccc1O)c1ccc(-c2ccc(N3C[C@H](CO)OC3=O)cc2)cc1`, the MIC in assay [14], in [15], in assay [16], in [17], in assay [18] and in assay [19] was 3.12 µg/mL (≈ 7.52 µM) throughout.

On to `O=C(/C=C/c1ccc(O)cc1)c1ccc(-c2ccc(N3C[C@H](CO)OC3=O)cc2)cc1`, for which the MIC in assay [14], in assay [15], in assay [16], in assay [17], in assay [18] and in assay [19] was 3.12 µg/mL (≈ 7.52 µM) throughout.

As to `Cc1nc(C)c(COc2ccc(N3C[C@H](CNC(=O)c4ccco4)OC3=O)cc2F)nc1C`, the MIC in assay [1] was 32 µg/mL (≈ 70.4 µM); in assay [2], 128 µg/mL (≈ 282 µM); in [3], 16 µg/mL (≈ 35.2 µM); in [4], 32 µg/mL (≈ 70.4 µM).

`Cc1nc(C)c(COc2ccc(N3C[C@H](CNC(=O)c4ccco4)OC3=O)cc2)nc1C`: the MIC in assay [1] was 64 µg/mL (≈ 147 µM); in assay [2], greater than 128 µg/mL; in [3], 64 µg/mL (≈ 147 µM); in assay [4] it was 128 µg/mL (≈ 293 µM).

For `O=C(O)c1cn(C2CC2)c2cc(N3CCNCC3)c(F)cc2c1=O` [CIPROFLOXACIN], the MIC in [8] and in assay [10] was 6.25 µg in each case.

For the compound `COCC(=O)NC[C@H]1CN(c2ccc(OCc3nc(C)c(C)nc3C)cc2)C(=O)O1`, the MIC in [1] is 64 µg/mL (≈ 154 µM); in [2], greater than 128 µg/mL; in [3], 128 µg/mL (≈ 309 µM); in [4], greater than 128 µg/mL.

In the case of `Cc1nc(C)c(COc2ccc(N3C[C@H](CO)OC3=O)cc2F)nc1C`, the MIC was 64 µg/mL (≈ 177 µM) in [1], 64 µg/mL (≈ 177 µM) in assay [2], 128 µg/mL (≈ 354 µM) in [3] and 64 µg/mL (≈ 177 µM) in [4].

Values taken from ChEMBL document CHEMBL5233274, “Current Landscape and Future Perspective of Oxazolidinone Scaffolds Containing Antibacterial Drugs” (J Med Chem, 2021).
